From paper PMC9180926, “Discovery of Novel 3-Hydroxyquinazoline-2,4(1H,3H)-Dione Derivatives: A Series of Metal Ion Chelators with Potent Anti-HCV Activities” (International Journal of Molecular Sciences, 2022)
Entries after “also recorded” stand apart in the source; their conditions may differ. Like-named read-outs stand apart in the source and are kept apart here.

Legend:
[1] = system: HCV 1b replicon cells (Huh-7.5.1); assay: Anti-HCV assay, HCV 1b replicon cells with luciferase reporter; format: cell-based, hepatitis C virus (HCV) subtype 1b; conditions: HCV 1b replicon cells; for EC50: mean ± SD; for inhibition at 10 µM / inhibition at 25 µM: Huh-7.5.1, 72 h, 72 h; for inhibition at 10 µM: inhibitory rate at 10 μM, read-out: HCV Inhibition 10 μM; for inhibition at 25 µM: inhibitory rate at 25 μM, read-out: HCV Inhibition 25 μM
Description: (§1) The HCV replicons were validated as convenient and effective models for testing the anti-HCV activity. Since HCV subtype 1b is one of the major subtypes worldwide, especially in China, the replicon model from the Huh-7.5.1 cell line integrating HCV 1b genome encoding the nonstructural proteins was chosen to evaluate the anti-HCV activities of 3-hydroxyquinazoline-2,4(1H,3H)-diones. The inhibitory rates of the compounds on HCV replicon cells were determined at concentrations of 25 μM and 10 μM, respectively. The broad-spectrum antiviral drug ribavirin (RBV) and the NS5B nucleoside inhibitor 2′-C-methyladenosine (2CMA) were selected as positive controls. The cytotoxicity of these compounds on replicon cells was determined using the cell counting kit-8 (CCK-8) assay.
HCV 1b replicon cells (Huh-7.5.1) containing luciferase reporter gene were kindly provided by Prof. Zhenghong Yuan (Key Laboratory of Medical Molecular Virology, Fudan University, Shanghai, China). The replicon cells were plated at 1.5 × 10^4 cells per well in a 48-well plate (Corning Inc., New York, NY, USA) at 5% CO2/37 °C. The culture medium was Dulbecco’s Modified Eagle Medium (DMEM, pH 7.3, Shanghai XP Biomed Ltd., Shanghai, China) containing 10% fetal bovine serum (Shanghai XP Biomed Ltd., Shanghai, China), 10^5 U/L penicillin, 0.1 g/L streptomycin, and 0.5 μg/mL blasticidin. After 12 h, the culture medium in each well was replaced with 300 μL of pre-prepared fresh culture medium containing test compound (dissolved in DMSO with specific concentration) or blank DMSO. The final concentration of DMSO in the culture medium in the plate was 0.1%. Each group was tested at least twice in parallel. Ribavirin and 2CMA were used as the positive controls. After incubating the drug-added plate at 5% CO2/37 °C for 72 h, the medium was removed, and each well was washed with 300 μL of phosphate buffer solution (PBS, Shanghai XP Biomed Ltd., Shanghai, China). The cells in each well were then lysed with 50 μL of 1× lysis buffer (E2820, Promega, Madison, WI, USA). Subsequently, 50 μL of 1× luciferase assay substrate (E2820, Promega, Madison, WI, USA) was mixed with 20 μL of the harvested cell lysates.
The inhibitory rates under at least six different concentration gradients were imported into GraphPad Prism 7.0 software to calculate the anti-HCV EC50 values of the compounds using the nonlinear fitting method.

[2] = Cytotoxicity assay (CCK-8) on replicon cells; format: cell-based; conditions: human, HCV 1b replicon cells (Huh-7.5.1); 50% cytotoxic concentration; CCK-8, HCV 1b replicon cells, 72 h
Description: as §1
(§2) The HCV 1b replicon cells were incubated and treated with test compounds or blank DMSO in a 48-well plate using the same materials and methods as described in the experimental procedure of anti-HCV assay. The final concentration of DMSO in each well was 0.1%. After 72 h of drug treatment, the culture medium in the well plate was removed, and cells in each well were washed with 300 μL of PBS. A total of 300 μL of pre-prepared fresh culture medium containing 30 μL CCK-8 reagent (Donjindo, Kumamoto, Japan) was added to each well, and the plate was incubated at 5% CO2/37 °C for 2 h. The OD (optical density) value of each well at 450 nm was measured using a multi-function microplate reader (SpectraMax M5, Molecular Devices, San Jose, CA, USA). The death ratio of each well was calculated using the following equation, in which ODcompound or ODblank represents the measured OD value of the compound group or the blank control (DMSO), respectively:death ratio = (1−ODcompound/ODblank) × 100%(2)
(§3) The cell death data under at least six different concentration gradients were imported into GraphPad Prism 7.0.0 software (GraphPad Software Inc., San Diego, CA, USA), and the CC50 (50% cytotoxic concentration) values were calculated using the nonlinear fitting method.

[3] = system: HCV 1b replicon cells (Huh-7.5.1); assay: Cytotoxicity assay (CCK-8) on replicon cells; format: cell-based; conditions: replicon cells, tested concentrations
Description: as §1, §2, §3

[4] = system: NS5B; conditions: cited from earlier work
[5] = system: HCV; conditions: cited from earlier work
[6] = target: T1, C-terminal His-tagged NS5BΔ21 from HCV 1b subtype (Hepatitis C virus genotype 1b, UniProt Q913V3); assay: Thermal shift assay with NS5B protein; format: binding; conditions: for ΔTm at 50 µM: compound 50 μM; for ΔTm at 100 µM: compound 100 μM
T1 construct: C-terminal His-tagged NS5BΔ21 from HCV 1b subtype; His tag (C); made in house
From the text: The stability of a protein system is enhanced after binding to its specific ligand, leading to an increase in the melting temperature (Tm). Taking advantage of this feature, the thermal shift assay was extensively used to assess the binding of small molecules to the protein targets. The metal ion chelators were thought to exert an anti-HCV effect by chelating with Mg^2+ in the catalytic center of NS5B [34, 36, 38]. […] C-terminal His-tagged NS5BΔ21 from HCV 1b subtype was used as the protein in the experiment. Compared with the blank control (DMSO), the fluorescence–temperature curves of the NS5B system in the presence of 21e (Figure 3A) and 21k (Figure 3B) at 50 μM, 100 μM, and 200 μM all shifted to the right of the axis. The Tm values of 21e and 21k increased in a concentration-dependent manner, presenting higher values than that of the blank control (Tm = 63.5 °C) at all tested concentrations.
C-terminal His-tagged NS5BΔ21 from HCV 1b subtype was expressed from pET28a HCR6 plasmid in our lab and dissolved in a Tris-HCl buffer (20 mm, pH 7.2) containing 150 mm NaCl. Then, 1 μL of corresponding concentration (1 mm, 2 mm, or 4 mm) of the test compound in DMSO or 1 μL DMSO alone was added to each well of a 96-well PCR plate (Shanghai Sangon Biotech Co., Ltd., Shanghai, China). Subsequently, 19 μL of pre-prepared PBS solution containing 10 mm MgCl2, 10× SYPRO® orange protein gel stain (Sigma-Aldrich, St. Louis, MO, USA), and 5 μM NS5B protein was added to each well and mixed. The final concentration of DMSO in each well was 5%. The PCR plate was covered with a high-permeable film, incubated at room temperature for 10 min, and then placed on the Applied Biosystems^TM 7500 Real-Time PCR System (Thermo Fisher Scientific, Waltham, MA, USA). The temperature was increased to 90 °C gradually, and the change curve of fluorescence intensity versus system temperature was recorded.

[7] = system: HCV 1b replicon cells (Huh-7.5.1); assay: Anti-HCV assay, HCV 1b replicon cells with luciferase reporter; format: cell-based, hepatitis C virus (HCV) subtype 1b; conditions: Hepatitis C virus, Huh-7.5.1, 72 h, inhibitory rate at 5 μM
[8] = set-up: method as in PMID 22100256; conditions: Figure 1; read-out: NS5B CC50; cited from earlier work
[9] = Hepatitis C virus, Huh-7.5.1, 50% effective concentration
[10] = 5,6-dihydroxypyrimidine-4-carboxylic acids
[11] = Tm of compound group minus Tm of blank control, mean ± SD, three experiments

T1 sequence (Q913V3 2420-2989, stated change not applied): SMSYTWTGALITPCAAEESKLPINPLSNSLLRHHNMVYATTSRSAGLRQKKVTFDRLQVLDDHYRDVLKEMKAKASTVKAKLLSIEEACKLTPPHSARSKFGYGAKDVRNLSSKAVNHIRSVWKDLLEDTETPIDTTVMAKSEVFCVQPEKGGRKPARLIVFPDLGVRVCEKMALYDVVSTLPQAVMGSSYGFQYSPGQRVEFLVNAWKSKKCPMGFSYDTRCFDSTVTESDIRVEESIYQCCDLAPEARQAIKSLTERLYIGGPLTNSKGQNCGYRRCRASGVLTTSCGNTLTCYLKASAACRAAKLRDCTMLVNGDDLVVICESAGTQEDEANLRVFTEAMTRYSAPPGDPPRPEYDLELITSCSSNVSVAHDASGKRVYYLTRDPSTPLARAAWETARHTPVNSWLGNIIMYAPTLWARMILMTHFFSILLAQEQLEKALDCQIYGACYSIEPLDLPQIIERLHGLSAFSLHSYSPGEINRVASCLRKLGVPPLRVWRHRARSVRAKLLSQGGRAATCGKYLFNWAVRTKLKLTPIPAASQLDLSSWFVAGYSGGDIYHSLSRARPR

`O=c1c2ccccc2n(CCc2ccccc2Cl)c(=O)n1O` [10c, 1-(2-Chlorophenethyl)-3-hydroxyquinazoline-2,4(1H,3H)-dione] showed an EC50 [1, 9] of over 12.2 µM, an inhibition at 10 µM ([1]; Hepatitis C virus) of 33.4% and an inhibition at 25 µM ([1]; Hepatitis C virus) of 67.8%. For the same molecule, the CC50 at 72 h [2] was 12.2 µM and the “cytotoxicity (in words)” value [3] was “some cytotoxicity”.

In the case of `O=C(NCc1ccccc1Cl)Nc1cscc1-c1nc(O)c(O)c(C(=O)O)n1` [compound 5], the IC50 [4, 10] is given as 0.15 µM and the EC50 ([5]; cellular level) is given as 9.3 µM.

In the case of `Nc1ncnc2c1ncn2[C@@H]1O[C@H](COP(=O)(O)OP(=O)(O)O)[C@@H](O)[C@H]1O` [ADP, adenosine diphosphate, reference compound], the ΔTm at 50 µM [6, 11] is reported as 0.44 ± 0.11 °C, the ΔTm at 100 µM [6, 11] is reported as 0.62 ± 0.05 °C and the “ΔTm 200 μM” value ([6]; compound 200 μM, Tm of compound group minus Tm of blank control, mean ± SD, three experiments) is reported as 0.88 ± 0.06 °C. The ΔTm at 200 µM ([6]; read-out: ΔTm 200 μM, compound 200 μM, Tm of compound group minus Tm of blank control, mean ± SD, three experiments) was 0.87 °C.

For `O=c1[nH]c2cc(-c3cccc([N+](=O)[O-])c3)ccc2c(=O)n1O` [21k, 3-Hydroxy-7-(3-nitrophenyl)quinazoline-2,4(1H,3H)-dione], the inhibition at 10 µM ([1]; Hepatitis C virus) was 70.6%, the ΔTm at 50 µM [6, 11] was 0.87 ± 0.12 °C and the ΔTm at 100 µM [6, 11] was 1.6 ± 0.08 °C. For the same molecule, the ΔTm at 200 µM ([6]; compound 200 μM, Tm of compound group minus Tm of blank control, mean ± SD, three experiments, read-out: ΔTm 200 μM) was 2.1 ± 0.44 °C, the “Tm of NS5B complexed with compound” value ([6]; in Figure 3, blank control Tm = 63.5 °C) was 65.6 °C and the inhibition at 5 µM [7] was 55%. For the same molecule, the CC50 at 72 h [2] was 40.9 ± 3.5 µM.

Work on `O=c1c2ccccc2n(CCc2ccc(F)cc2)c(=O)n1O` [10d, 1-(4-Fluorophenethyl)-3-hydroxyquinazoline-2,4(1H,3H)-dione] yielded an EC50 [1, 9] of 13.3 ± 0.9 µM, an inhibition at 10 µM ([1]; Hepatitis C virus) of 36.4% and an inhibition at 25 µM ([1]; Hepatitis C virus) of 75.7%. The CC50 at 72 h [2] was 22.2 ± 4.6 µM and the “cytotoxicity (in words)” value [3] was “some cytotoxicity”.

For `NC(=O)c1ncn([C@@H]2O[C@H](CO)[C@@H](O)[C@H]2O)n1` [RBV, ribavirin, reference compound], the EC50 [1, 9] is given as 20 ± 4.1 µM, the inhibition at 25 µM ([1]; Hepatitis C virus) is given as 53.2% and the EC50 ([5]; cellular level, reported) is given as 14 µM. The CC50 at 72 h [2] was 45.5 ± 2.6 µM.

With `O=c1[nH]c2cc(-c3ccc(C(F)(F)F)cc3)ccc2c(=O)n1O` [21h, 3-Hydroxy-7-(4-(trifluoromethyl)phenyl)quinazoline-2,4(1H,3H)-dione] the EC50 ([1]; 50% effective concentration) was 9.6 ± 2.7 µM, the EC50 [1, 9] was under 10 µM and the inhibition at 10 µM ([1]; Hepatitis C virus) was 53.8%. The inhibition at 5 µM [7] was 5%, the CC50 at 72 h [2] was over 50 µM and the “cytotoxicity (in words)” value [3] was “no cytotoxicity was observed”.

In the case of `O=C1Cc2cc(-c3ccco3)ccc2C(=O)N1O` [compound 6], the IC50 ([4]; 2-hydroxyisoquinoline-1,3-diones) is given as 1.3 µM, the CC50 [8] is given as 13 µM and the EC50 ([5]; cellular level, reported) is given as 1.9 µM.

For `O=C(O)c1nc(-c2cccs2)nc(O)c1O` [compound 4], the IC50 [4, 10] is given as 2.6 µM and the EC50 ([5]; cellular level) is given as over 100 µM.

For `C[C@@]1(O)[C@H](O)[C@@H](CO)O[C@H]1n1cnc2c(N)ncnc21` [2CMA, 2′-C-methyladenosine, reference compound], the EC50 [1, 9] is given as 0.36 ± 0.03 µM, the EC50 ([5]; reported) is given as 0.3 µM and the CC50 at 72 h [2] is given as over 10 µM.

For `O=C(O)c1occc(=O)c1O` [compound 3], the IC50 ([4]; meconic acids) is listed as 2.25 µM and the EC50 ([5]; cellular level) is listed as over 50 µM.

In the case of `N#Cc1c(Cl)cc(Cl)cc1COc1cccc(C(=O)CC(=O)C(=O)O)c1` [compound 2], the IC50 ([4]; α,γ-diketo acids) is given as 0.045 µM.

For `O=c1[nH]c2cc(-c3cc4ccccc4o3)ccc2c(=O)n1O` [21t, 7-(Benzofuran-2-yl)-3-hydroxyquinazoline-2,4(1H,3H)-dione], the inhibition at 10 µM ([1]; Hepatitis C virus) was 68.3%, the inhibition at 25 µM ([1]; Hepatitis C virus) was 78.5% and the CC50 at 72 h [2] was over 50 µM. The “cytotoxicity (in words)” value [3] was “no obvious cytotoxic effect; also recorded: No cytotoxic effect was observed”.

In the case of `O=C(O)C(=O)CC(=O)c1ccccc1` [compound 1], the IC50 ([4]; α,γ-diketo acids) is listed as 5.7 µM.
